In this assay the target is T1, BACE2 (Homo sapiens, UniProt Q9Y5Z0).
T1 construct: BACE2 enzyme ectodomain (derived from plasmid “pET17b-T7-hu proBACE2”) was prepared as described in Ostermann et al; T7 tag (N); made in house
T1 sequence (Q9Y5Z0 21-473 limits assumed): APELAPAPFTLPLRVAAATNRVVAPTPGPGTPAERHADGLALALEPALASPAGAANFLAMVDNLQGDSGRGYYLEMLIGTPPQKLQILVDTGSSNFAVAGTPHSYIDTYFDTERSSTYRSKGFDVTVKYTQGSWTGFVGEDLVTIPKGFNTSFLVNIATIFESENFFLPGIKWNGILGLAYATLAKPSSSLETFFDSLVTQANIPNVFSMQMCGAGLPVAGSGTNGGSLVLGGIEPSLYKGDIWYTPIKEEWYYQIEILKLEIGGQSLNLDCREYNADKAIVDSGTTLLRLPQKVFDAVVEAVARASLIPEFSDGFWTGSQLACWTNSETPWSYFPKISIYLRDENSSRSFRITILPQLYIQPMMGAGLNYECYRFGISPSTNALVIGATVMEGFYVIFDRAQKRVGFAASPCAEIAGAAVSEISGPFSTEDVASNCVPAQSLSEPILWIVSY
Description: Fluorescent-peptide cleavage assay for BACE2 inhibition. Format: biochemical. As to conditions: BACE2 enzyme ectodomain, fluorescent peptide WS EVNLD AEFRC-MR121, assay buffer pH 4.5, room temperature. The method, then:
Fluorescent-Peptide Cleavage Assay for BACE2 Inhibition
The pro-enzyme was stored at 4° C. at a concentration of 70 μg/ml.
A fluorescent peptide with the amino acid sequence WS EVNLD AEFRC-MR121 was synthesised and a stock solution of 1.5 mM in DMSO prepared and stored at −20° C. MR121 is a fluorophore with an excitation wavelength of 630 nm and emission wavelength of 695 nm. The MR121 fluorescence is quenched by the N-terminal tryptophan until the peptide is cleaved by BACE2.
Assays were all made in a Corning 384-well black polystyrene non-binding surface microtitre plate with clear flat bottom and using a Plate:Vision (Perkin Elmer) fluorescence reader. To perform the assay an 80 nM solution of BACE2 was prepared in assay buffer (assay buffer is 100 mM Na-acetate; 20 mM EDTA; 0.05% BSA; pH 4.5) and incubated at room temperature for 1 hour to activate the enzyme. 39 μl of the activated BACE2 was placed in each assay well, followed by 1 μl compound to be tested at an appropriate concentration in 100% DMSO. The plate was then mixed and incubated for 10 minutes at room temperature.
The assay readout is the rate of change of fluorescence intensity giving a relative measure of BACE2 activity. Small values correspond to high inhibition and larger values to low inhibition. […] IC50 values were determined using these assay values generated for a range of inhibitor concentrations and the curve fitting software XLfit (IDBS) using the Sigmoidal Dose-Response Model.
Usually IC50 stands for the concentration needed to halve the response being measured. A lower IC50 goes with inhibition by little substance. `CC[C@@]1(c2cccc(NC(=O)c3ccccn3)c2)CC(=O)N(C)C(N)=N1` [Example 40, Pyridine-2-carboxylic acid [3-((S)-2-amino-4-ethyl-1-methyl-6-oxo-1,4,5,6-tetrahydro-pyrimidin-4-yl)-phenyl]-amide] showed a 50% inhibitory concentration (IC50) of 39 nM.

In the case of `CC[C@@]1(c2cccc(NC(=O)c3ccc(Cl)s3)c2)CC(=O)N(C)C(N)=N1` [Example 41, 5-Chloro-thiophene-2-carboxylic acid [3-((S)-2-amino-4-ethyl-1-methyl-6-oxo-1,4,5,6-tetrahydro-pyrimidin-4-yl)-phenyl]-amide], it took 95 nM to reach half-maximal inhibition (IC50).

For the compound `CC[C@@]1(c2cccc(NC(=O)c3cccc(Cl)n3)c2)CC(=O)N(C)C(N)=N1` [Example 42, 6-Chloro-pyridine-2-carboxylic acid [3-((S)-2-amino-4-ethyl-1-methyl-6-oxo-1,4,5,6-tetrahydro-pyrimidin-4-yl)-phenyl]-amide], the IC50 was 125 nM.

`CC[C@@]1(c2cccc(NC(=O)c3ncccc3Cl)c2)CC(=O)N(C)C(N)=N1` [Example 43, 3-Chloro-pyridine-2-carboxylic acid [3-((S)-2-amino-4-ethyl-1-methyl-6-oxo-1,4,5,6-tetrahydro-pyrimidin-4-yl)-phenyl]-amide] had an IC50 of 87 nM. This IC50 and that of the compound before are within 1.5-fold of each other.

On to `CC[C@@]1(c2cccc(NC(=O)c3ncc(Cl)cn3)c2)CC(=O)N(C)C(N)=N1` [Example 44, 5-Chloro-pyrimidine-2-carboxylic acid [3-((S)-2-amino-4-ethyl-1-methyl-6-oxo-1,4,5,6-tetrahydro-pyrimidin-4-yl)-phenyl]-amide], for which the IC50 was found to be 7 nM.

On to `CN1C(=N)N[C@](C)(c2cc(NC(=O)c3ccc(Cl)cn3)ccc2F)CC1=O` [Example 45, 5-Chloro-pyridine-2-carboxylic acid [3-((S)-2-amino-1,4-dimethyl-6-oxo-1,4,5,6-tetrahydro-pyrimidin-4-yl)-4-fluoro-phenyl]amide], for which the IC50 was found to be 7 nM.

Compound `CN1C(=O)C[C@@](C)(c2cc(NC(=O)c3ncc(Cl)cn3)ccc2F)N=C1N` [Example 46, 5-Chloro-pyrimidine-2-carboxylic acid [3-((S)-2-amino-1,4-dimethyl-6-oxo-1,4,5,6-tetrahydro-pyrimidin-4-yl)-4-fluoro-phenyl]amide] yielded an IC50 of 14 nM.

Compound `CN1C(=O)C[C@@](C)(c2cc(NC(=O)c3ccccn3)ccc2F)N=C1N` [Example 47, Pyridine-2-carboxylic acid [3-((S)-2-amino-1,4-dimethyl-6-oxo-1,4,5,6-tetrahydro-pyrimidin-4-yl)-4-fluoro-phenyl]amide] registered an IC50 of 8 nM.

As to `CN1C(=N)N[C@](C)(c2cc(NC(=O)c3ccc(C(F)(F)F)cn3)ccc2F)CC1=O` [Example 48, 5-Trifluoromethyl-pyridine-2-carboxylic acid [3-((S)-2-amino-1,4-dimethyl-6-oxo-1,4,5,6-tetrahydro-pyrimidin-4-yl)-4-fluoro-phenyl]amide], the IC50 is 9 nM.

Compound `CCN1C(=O)C[C@@](C)(c2cccc(NC(=O)c3ccc(Cl)cn3)c2)N=C1N` [Example 49, 5-Chloro-pyridine-2-carboxylic acid [3-((S)-2-amino-1-ethyl-4-methyl-6-oxo-1,4,5,6-tetrahydro-pyrimidin-4-yl)-phenyl]amide] yielded a half-inhibitory concentration (IC50) of 15 nM.

Turning to `C[C@@]1(c2cccc(NC(=O)c3ccc(Cl)cn3)c2)CC(=O)N(Cc2ccccc2)C(N)=N1` [Example 50, 5-Chloro-pyridine-2-carboxylic acid [3-((S)-2-amino-1-benzyl-4-methyl-6-oxo-1,4,5,6-tetrahydro-pyrimidin-4-yl)-phenyl]amide], the IC50 worked out at 10 nM.

`C[C@@]1(c2cccc(NC(=O)c3ccc(Cl)cn3)c2)CC(=O)NC(N)=N1` [Example 51, 5-Chloro-pyridine-2-carboxylic acid [3-((S)-2-amino-4-methyl-6-oxo-1,4,5,6-tetrahydro-pyrimidin-4-yl)-phenyl]amide] gave a concentration for half-maximal inhibition (IC50) of 33 nM.

For the origin of these results see patent US8461160B2, “Dihydropyrimidinones” (Hoffmann-La Roche, Inc., priority 2009, dated 2013).
